Measured values as given in patent US20260365653A1, “IRREVERSIBLE MUTEGFR INHIBITORS” (Bayer Aktiengesellschaft, priority 2022, published 2026).
Each block holds one molecule with its values, some of them ahead of it.

Assays:
[1] = biological target: T1, mutEGFR (D770_N771insSVD) (Homo sapiens, UniProt P00533, DUP768-770); assay: Exon20-Mutant-EGFR (D770_N771insSVD) kinase assay (TR-FRET); format: biochemical; details: mutEGFR (D770_N771insSVD) kinase assay IC50, Table 2a; D770_N771insSVD; 2 mM ATP
T1 construct: GST-EGFR #3 (SVD between D770 and N771); made in house; host or cells: Sf9 insect cells (baculovirus)
T1 sequence (P00533 with tags, fused parts or gaps DUP768-770): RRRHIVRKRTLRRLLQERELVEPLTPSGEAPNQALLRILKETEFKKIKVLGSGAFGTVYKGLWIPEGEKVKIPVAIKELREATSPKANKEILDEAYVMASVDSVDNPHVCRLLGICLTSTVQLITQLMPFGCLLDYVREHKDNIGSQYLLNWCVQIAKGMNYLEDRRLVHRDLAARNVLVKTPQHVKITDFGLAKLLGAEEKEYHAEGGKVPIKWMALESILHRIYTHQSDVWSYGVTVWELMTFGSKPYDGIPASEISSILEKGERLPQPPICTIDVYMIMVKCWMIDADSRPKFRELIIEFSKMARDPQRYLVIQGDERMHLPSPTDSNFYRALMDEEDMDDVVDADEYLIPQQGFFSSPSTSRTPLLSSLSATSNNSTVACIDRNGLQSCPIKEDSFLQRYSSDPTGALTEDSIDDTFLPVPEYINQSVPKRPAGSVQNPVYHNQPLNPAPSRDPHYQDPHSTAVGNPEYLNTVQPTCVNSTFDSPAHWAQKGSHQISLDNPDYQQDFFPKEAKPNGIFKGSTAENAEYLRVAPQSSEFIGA

[2] = biological target: T2, mutEGFR (D770_N771insNPG, T790) (Homo sapiens, UniProt P00533, INS770NPG/T790M); assay: mutEGFR (D770_N771insNPG, T790) kinase assay; format: biochemical; details: Table 2a, D770_N771insNPG
T2 construct: exact insNPG construct not described; in-house EGFR proteins were N-terminal GST fusions from baculovirus/insect cells (borders R669-A1210 given only for WT, insSVD, insASV)
T2 sequence (P00533 with tags, fused parts or gaps INS770NPG/T790M limits assumed): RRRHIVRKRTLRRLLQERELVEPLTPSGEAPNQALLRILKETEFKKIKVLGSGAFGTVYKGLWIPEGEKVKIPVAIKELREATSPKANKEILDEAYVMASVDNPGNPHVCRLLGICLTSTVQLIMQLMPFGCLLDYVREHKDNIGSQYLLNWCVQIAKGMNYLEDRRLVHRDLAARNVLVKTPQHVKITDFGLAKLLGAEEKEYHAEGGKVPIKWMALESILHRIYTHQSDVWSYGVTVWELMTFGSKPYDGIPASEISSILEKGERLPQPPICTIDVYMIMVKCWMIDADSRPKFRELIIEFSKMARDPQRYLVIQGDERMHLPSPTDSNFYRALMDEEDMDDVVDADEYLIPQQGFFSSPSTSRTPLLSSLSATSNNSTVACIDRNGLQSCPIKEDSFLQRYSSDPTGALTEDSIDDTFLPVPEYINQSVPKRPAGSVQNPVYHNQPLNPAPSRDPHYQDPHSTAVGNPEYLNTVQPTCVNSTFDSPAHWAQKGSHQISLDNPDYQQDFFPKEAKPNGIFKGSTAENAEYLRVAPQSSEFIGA
Source text: The different EGFR proteins used in the biochemical kinase activity inhibition assays were generated inhouse by expression in insect cells using Baculo Virus system and subsequent purification as described in the following paragraphs.
The cDNAs encoding the various protein sequences from human EGFR human (P00533) were optimized for expression in eukaryotic cells and synthesized by the GeneArt Technology at Life Technologies.

[3] = test system: BA/F3 (insSVD) cells; assay: Ba/F3-EGFR-insSVD cell survival assay (Cell Titer-Glo); format: cell-based; details: Mus musculus, BaF3, 48 h, Table 3a, cell survival, Cell Titer-Glo, with 10 ng/ml EGF, without IL-3
Summary of the method: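 CellTiter-Glo luminescence read after 48 h compound exposure at 37° C. Cells: IL-3-independent Ba/F3 lines transduced with EGFR-insSVD or EGFR-insSVD T790M, maintained on 10 ng/ml EGF and seeded at 4000 per well.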

Compound: C=CC(=O)N1Cc2c(-c3ccncc3)c(-c3cccc(C#N)c3)nn2C[C@@H]1C [Example 127, 3-[(6S)-6-methyl-5-(prop-2-enoyl)-3-(pyridin-4-yl)-4,5,6,7-tetrahydropyrazolo[1,5-a]pyrazin-2-yl]benzonitrile]
IC50 [1]: 25.4 nM | IC50 [2]: 5.65 nM | IC50 [3]: 39 nM

Compound: C=CC(=O)N1CCn2nc(-c3cc(Cl)ccc3F)c(-c3ccncc3)c2C1 [Example 132, 1-[2-(5-chloro-2-fluorophenyl)-3-(pyridin-4-yl)-6,7-dihydropyrazolo[1,5-a]pyrazin-5(4H)-yl]prop-2-en-1-one]
IC50 [1]: 0.957 nM | IC50 [2]: 1.31 nM | IC50 [3]: 44.2 nM

Compound: C=CC(=O)N1CCn2nc(-c3ccc(C(F)(F)F)c(F)c3)c(-c3ccncc3)c2C1 [Example 134, 1-{2-[3-fluoro-4-(trifluoromethyl)phenyl]-3-(pyridin-4-yl)-6,7-dihydropyrazolo[1,5-a]pyrazin-5(4H)-yl}prop-2-en-1-one]
IC50 [1]: 2.1 nM | IC50 [2]: 9.18 nM | IC50 [3]: 65.1 nM

Compound: C=CC(=O)N1CCn2nc(-c3ccc(C(F)(F)F)cc3F)c(-c3ccncc3)c2C1 [Example 135, 1-{2-[2-fluoro-4-(trifluoromethyl)phenyl]-3-(pyridin-4-yl)-6,7-dihydropyrazolo[1,5-a]pyrazin-5(4H)-yl}prop-2-en-1-one]
IC50 [1]: 0.471 nM | IC50 [2]: 1.8 nM | IC50 [3]: 27.7 nM

Compound: C=CC(=O)N1CCn2nc(-c3ccccc3Cl)c(-c3ccncc3)c2C1 [Example 137, 1-[2-(2-chlorophenyl)-3-(pyridin-4-yl)-6,7-dihydropyrazolo[1,5-a]pyrazin-5(4H)-yl]prop-2-en-1-one]
IC50 [1]: 1.6 nM | IC50 [2]: 10.8 nM | IC50 [3]: 144 nM

Compound: C=CC(=O)N1CCn2nc(-c3cccc(C#N)c3)c(-c3ccncc3)c2C1 [Example 141, 3-[5-(prop-2-enoyl)-3-(pyridin-4-yl)-4,5,6,7-tetrahydropyrazolo[1,5-a]pyrazin-2-yl]benzonitrile]
IC50 [1]: 32.4 nM | IC50 [2]: 19.7 nM | IC50 [3]: 177 nM

Compound: CN(C)C/C=C/C(=O)N1CCn2nc(-c3ccc(OC(F)(F)F)cc3)c(-c3ccncc3)c2C1 [Example 145, (2E)-4-(dimethylamino)-1-[3-(pyridin-4-yl)-2-[4-(trifluoromethoxy)phenyl]-6,7-dihydropyrazolo[1,5-a]pyrazin-5(4H)-yl]but-2-en-1-one]
IC50 [1]: 9.01 nM | IC50 [2]: 60.4 nM | IC50 [3]: 607 nM

Compound: C#Cc1ccc(-c2nn3c(c2-c2ccncc2)CN(C(=O)/C=C/CN(C)C)CC3)cc1 [Example 146, (2E)-4-(dimethylamino)-1-[2-(4-ethynylphenyl)-3-(pyridin-4-yl)-6,7-dihydropyrazolo[1,5-a]pyrazin-5(4H)-yl]but-2-en-1-one]
IC50 [1]: 680 nM | IC50 [2]: 1170 nM | IC50 [3]: 4680 nM

Compound: CCOc1ccc(-c2nn3c(c2-c2ccncc2)CN(C(=O)/C=C/CN(C)C)CC3)cc1 [Example 147, (2E)-4-(dimethylamino)-1-[2-(4-ethoxyphenyl)-3-(pyridin-4-yl)-6,7-dihydropyrazolo[1,5-a]pyrazin-5(4H)-yl]but-2-en-1-one]
IC50 [1]: 36 nM | IC50 [2]: 201 nM | IC50 [3]: 2940 nM

Compound: CN(C)C/C=C/C(=O)N1CCn2nc(-c3ccc(C(F)F)cc3)c(-c3ccncc3)c2C1 [Example 148, (2E)-1-{2-[4-(difluoromethyl)phenyl]-3-(pyridin-4-yl)-6,7-dihydropyrazolo[1,5-a]pyrazin-5(4H)-yl}-4-(dimethylamino)but-2-en-1-one]
IC50 [1]: 1.91 nM | IC50 [2]: 9.1 nM | IC50 [3]: 387 nM

Compound: CN(C)C/C=C/C(=O)N1CCn2nc(-c3cc(Cl)ccc3F)c(-c3ccncc3)c2C1 [Example 149, (2E)-1-[2-(5-chloro-2-fluorophenyl)-3-(pyridin-4-yl)-6,7-dihydropyrazolo[1,5-a]pyrazin-5(4H)-yl]-4-(dimethylamino)but-2-en-1-one]
IC50 [1]: 1.54 nM | IC50 [2]: 2.59 nM | IC50 [3]: 200 nM

Compound: CN(C)C/C=C/C(=O)N1CCn2nc(-c3cccc(Cl)c3)c(-c3ccncc3)c2C1 [Example 150, (2E)-1-[2-(3-chlorophenyl)-3-(pyridin-4-yl)-6,7-dihydropyrazolo[1,5-a]pyrazin-5(4H)-yl]-4-(dimethylamino)but-2-en-1-one]
IC50 [1]: 0.764 nM | IC50 [2]: 1.05 nM | IC50 [3]: 54.3 nM

Compound: CN(C)C/C=C/C(=O)N1CCn2nc(-c3ccc(C(F)(F)F)c(F)c3)c(-c3ccncc3)c2C1 [Example 151, (2E)-4-(dimethylamino)-1-{2-[3-fluoro-4-(trifluoromethyl)phenyl]-3-(pyridin-4-yl)-6,7-dihydropyrazolo[1,5-a]pyrazin-5(4H)-yl}but-2-en-1-one]
IC50 [1]: 3.2 nM | IC50 [2]: 12.1 nM | IC50 [3]: 405 nM

Compound: CN(C)C/C=C/C(=O)N1CCn2nc(-c3ccc(C(F)(F)F)cc3F)c(-c3ccncc3)c2C1 [Example 152, (2E)-4-(dimethylamino)-1-{2-[2-fluoro-4-(trifluoromethyl)phenyl]-3-(pyridin-4-yl)-6,7-dihydropyrazolo[1,5-a]pyrazin-5(4H)-yl}but-2-en-1-one]
IC50 [1]: 1.05 nM | IC50 [2]: 4.55 nM | IC50 [3]: 257 nM

Continued, in another order:

IC50 [1]: 3.62 nM | IC50 [2]: 13.8 nM
Compound: C=CC(=O)N1CCn2nc(-c3ccc(OC(F)F)cc3)c(-c3ccncc3)c2C1 [Example 128, 1-{2-[4-(difluoromethoxy)phenyl]-3-(pyridin-4-yl)-6,7-dihydropyrazolo[1,5-a]pyrazin-5(4H)-yl}prop-2-en-1-one]
IC50 [3]: 139 nM

IC50 [1]: 2.97 nM | IC50 [2]: 16 nM
Compound: C=CC(=O)N1CCn2nc(-c3ccc(OC(F)(F)F)cc3)c(-c3ccncc3)c2C1 [Example 129, 1-[3-(pyridin-4-yl)-2-[4-(trifluoromethoxy)phenyl]-6,7-dihydropyrazolo[1,5-a]pyrazin-5(4H)-yl]prop-2-en-1-one]
IC50 [3]: 106 nM

IC50 [1]: 6.69 nM | IC50 [2]: 45.5 nM
Compound: C=CC(=O)N1CCn2nc(-c3ccc(OCC)cc3)c(-c3ccncc3)c2C1 [Example 130, 1-[2-(4-ethoxyphenyl)-3-(pyridin-4-yl)-6,7-dihydropyrazolo[1,5-a]pyrazin-5(4H)-yl]prop-2-en-1-one]
IC50 [3]: 980 nM

IC50 [1]: 1.79 nM | IC50 [2]: 8.01 nM
Compound: C=CC(=O)N1CCn2nc(-c3ccc(C(F)F)cc3)c(-c3ccncc3)c2C1 [Example 131, 1-{2-[4-(difluoromethyl)phenyl]-3-(pyridin-4-yl)-6,7-dihydropyrazolo[1,5-a]pyrazin-5(4H)-yl}prop-2-en-1-one]
IC50 [3]: 61.3 nM

IC50 [1]: 3.01 nM | IC50 [2]: 3.83 nM
Compound: C=CC(=O)N1CCn2nc(-c3cccc(Cl)c3)c(-c3ccncc3)c2C1 [Example 133, 1-[2-(3-chlorophenyl)-3-(pyridin-4-yl)-6,7-dihydropyrazolo[1,5-a]pyrazin-5(4H)-yl]prop-2-en-1-one]
IC50 [3]: 172 nM

IC50 [1]: 1.1 nM | IC50 [2]: 4.74 nM
Compound: C=CC(=O)N1CCn2nc(-c3ccccc3F)c(-c3ccncc3)c2C1 [Example 136, 1-[2-(2-fluorophenyl)-3-(pyridin-4-yl)-6,7-dihydropyrazolo[1,5-a]pyrazin-5(4H)-yl]prop-2-en-1-one]
IC50 [3]: 68.3 nM

IC50 [1]: 0.981 nM | IC50 [2]: 2.93 nM
Compound: C=CC(=O)N1CCn2nc(-c3ccc(C)cc3)c(-c3ccncc3)c2C1 [Example 138, 1-[2-(4-methylphenyl)-3-(pyridin-4-yl)-6,7-dihydropyrazolo[1,5-a]pyrazin-5(4H)-yl]prop-2-en-1-one]
IC50 [3]: 23.2 nM

IC50 [1]: 0.841 nM | IC50 [2]: 1.38 nM
Compound: C=CC(=O)N1CCn2nc(-c3cccc(C)c3)c(-c3ccncc3)c2C1 [Example 139, 1-[2-(3-methylphenyl)-3-(pyridin-4-yl)-6,7-dihydropyrazolo[1,5-a]pyrazin-5(4H)-yl]prop-2-en-1-one]
IC50 [3]: 25.9 nM

IC50 [1]: 0.812 nM | IC50 [2]: 3.08 nM
Compound: C=CC(=O)N1CCn2nc(-c3ccc(CC)cc3)c(-c3ccncc3)c2C1 [Example 140, 1-[2-(4-ethylphenyl)-3-(pyridin-4-yl)-6,7-dihydropyrazolo[1,5-a]pyrazin-5(4H)-yl]prop-2-en-1-one]
IC50 [3]: 51.4 nM

IC50 [1]: 0.739 nM | IC50 [2]: 2.83 nM
Compound: C=CC(=O)N1CCn2nc(-c3ccc(OC)cc3F)c(-c3ccncc3)c2C1 [Example 142, 1-[2-(2-fluoro-4-methoxyphenyl)-3-(pyridin-4-yl)-6,7-dihydropyrazolo[1,5-a]pyrazin-5(4H)-yl]prop-2-en-1-one]
IC50 [3]: 53 nM

IC50 [1]: 11.5 nM | IC50 [2]: 71.9 nM
Compound: C=CC(=O)N1CCn2nc(-c3ccc(SC(F)(F)F)cc3)c(-c3ccncc3)c2C1 [Example 143, 1-[3-(pyridin-4-yl)-2-{4-[(trifluoromethyl)sulfanyl]phenyl}-6,7-dihydropyrazolo[1,5-a]pyrazin-5(4H)-yl]prop-2-en-1-one]
IC50 [3]: 673 nM

IC50 [1]: 8.69 nM | IC50 [2]: 31 nM
Compound: CN(C)C/C=C/C(=O)N1CCn2nc(-c3ccc(OC(F)F)cc3)c(-c3ccncc3)c2C1 [Example 144, (2E)-1-{2-[4-(difluoromethoxy)phenyl]-3-(pyridin-4-yl)-6,7-dihydropyrazolo[1,5-a]pyrazin-5(4H)-yl}-4-(dimethylamino)but-2-en-1-one]
IC50 [3]: 1490 nM
